Test results taken from patent US9783537B2, “3-(4-ethylnylphenyl) pyridopyrimidinone compounds and process for preparation thereof useful as potential anticancer agents” (Council of Scientific & Industrial Research, priority 2013, dated 2017).
Like-named read-outs stand apart in the source and are kept apart here.

Columns and labels:
UO-31 = experiment: SRB 48 h growth assay, Renal UO-31; assay type: cell-based, human; conditions: UO-31, Renal; for GI50 / CC50: Homo sapiens; for CC50: read-out: Log10 LC50 (converted)
NCI-H322M = experiment: SRB 48 h growth assay, Non-small Cell Lung NCI-H322M; assay type: cell-based, human; conditions: for GI50 / CC50: Homo sapiens; for CC50: read-out: Log10 LC50 (converted)
U251 = experiment: SRB 48 h growth assay, CNS U251; assay type: cell-based, human; conditions: for GI50 / CC50: Homo sapiens; for CC50: U-251, read-out: Log10 LC50 (converted)
OVCAR-5 = experiment: SRB 48 h growth assay, Ovarian OVCAR-5; assay type: cell-based, human; conditions: OVCAR-5, Ovarian; for GI50 / CC50: Homo sapiens; for CC50: read-out: Log10 LC50 (converted)
T-47D = experiment: SRB 48 h growth assay, Breast T-47D; assay type: cell-based, human; conditions: for GI50 / CC50: Homo sapiens, T47D; for CC50: read-out: Log10 LC50 (converted)
HCC-2998 = experiment: SRB 48 h growth assay, Colon HCC-2998; assay type: cell-based, human; conditions: HCC-2998, Colon; for GI50 / CC50: Homo sapiens; for CC50: read-out: Log10 LC50 (converted)
HT-29 = experiment: SRB 48 h growth assay, Colon HT-29; assay type: cell-based, human; conditions: HT-29, Colon; for GI50 / CC50: Homo sapiens; for CC50: read-out: Log10 LC50 (converted)
COLO 205 = experiment: SRB 48 h growth assay, Colon COLO 205; assay type: cell-based, human; conditions: COLO 205, Colon; for GI50 / CC50: Homo sapiens; for CC50: read-out: Log10 LC50 (converted)
MALME-3M = experiment: SRB 48 h growth assay, Melanoma MALME-3M; assay type: cell-based, human; conditions: for GI50 / CC50: Homo sapiens; for CC50: read-out: Log10 LC50 (converted)
HCT-15 = experiment: SRB 48 h growth assay, Colon HCT-15; assay type: cell-based, human; conditions: HCT-15, Colon; for GI50 / CC50: Homo sapiens; for CC50: read-out: Log10 LC50 (converted)
SK-MEL-2 = experiment: SRB 48 h growth assay, Melanoma SK-MEL-2; assay type: cell-based, human; conditions: SK-MEL-2, Melanoma; for GI50 / CC50: Homo sapiens; for CC50: read-out: Log10 LC50 (converted)
CAKI-1 = experiment: SRB 48 h growth assay, Renal CAKI-1; assay type: cell-based, human; conditions: CAKI-1, Renal; for GI50 / CC50: Homo sapiens; for CC50: read-out: Log10 LC50 (converted)
MOLT-4 = experiment: SRB 48 h growth assay, Leukemia MOLT-4; assay type: cell-based, human; conditions: MOLT-4, Leukemia
[1] = system: eight renal cancer cell line (786-0, A498, ACHN, CAKI-1, SN12C, TK-10, UO-31 and RXF 393); experiment: in vitro anticancer activity, renal panel; assay type: cell-based; conditions: Homo sapiens; eight renal cancer cell lines, exposure at least 48 h; read-out: in vitro anticancer activity, range over panel
SR = experiment: SRB 48 h growth assay, Leukemia SR; assay type: cell-based, human
[2] = read-out: Growth Inhibition GI50
[3] = read-out: Log10 GI50 (converted)
[4] = U-251, read-out: Growth Inhibition GI50
[5] = U-251, read-out: Log10 GI50 (converted)
[6] = Homo sapiens, read-out: Growth Inhibition GI50
[7] = Homo sapiens, read-out: Log10 GI50 (converted)
[8] = Homo sapiens, read-out: Log10 LC50 (converted)

`C#Cc1ccc(-n2c(/C=C/c3cc(OC)c(OC)c(OC)c3)nc3ncccc3c2=O)cc1` [4q, (E)-3-(4-Ethynylphenyl)-2-(3,4,5-trimethoxystyryl)pyrido[2,3-d]pyrimidin-4(3H)-one] was tested, and the GI50 (UO-31; [2]) was 4.09 µM, the GI50 (UO-31; [3]) was 4.07 µM and the CC50 (UO-31) was > 100 µM. The “Log10 TGI50” value (UO-31) was >−4.00, the “Log10 TGI50” value (NCI-H322M) was >−4.00 and the GI50 (NCI-H322M; [2]) was 14.1 µM. The GI50 (NCI-H322M; [3]) was 14.1 µM, the CC50 (NCI-H322M) was > 100 µM and the “Log10 TGI50” value (U251) was >−4.00. For the same compound, the GI50 (U251; [4]) was 9.93 µM, the GI50 (U251; [5]) was 10 µM and the CC50 (U251) was > 100 µM. For the same compound, the GI50 (OVCAR-5; [2]) was > 100 µM, the GI50 (OVCAR-5; [3]) was > 100 µM and the CC50 (OVCAR-5) was > 100 µM. For the same compound, the “Log10 TGI50” value (OVCAR-5) was >−4.00, the “Log10 TGI50” value (T-47D) was >−4.00 and the GI50 (T-47D; [2]) was 5.85 µM. The GI50 (T-47D; [3]) was 5.89 µM, the CC50 (T-47D) was > 100 µM and the “Log10 TGI50” value (HCC-2998) was >−4.00. For the same compound, the GI50 (HCC-2998; [2]) was 27.5 µM, the GI50 (HCC-2998; [3]) was 27.5 µM and the CC50 (HCC-2998) was > 100 µM. The “Log10 TGI50” value (HT-29) was −4.82, the GI50 (HT-29; [2]) was 3.92 µM and the GI50 (HT-29; [3]) was 3.89 µM. The CC50 (HT-29) was > 100 µM, the “Log10 TGI50” value (COLO 205) was −4.92 and the GI50 (COLO 205; [2]) was 3.19 µM. The GI50 (COLO 205; [3]) was 3.16 µM, the CC50 (COLO 205) was > 100 µM and the “Log10 TGI50” value (MALME-3M) was −4.15. For the same compound, the GI50 (MALME-3M; [2]) was 9.74 µM, the GI50 (MALME-3M; [3]) was 9.77 µM and the CC50 (MALME-3M) was > 100 µM. The “Log10 TGI50” value (HCT-15) was >−4.00, the GI50 (HCT-15; [2]) was 5.58 µM and the GI50 (HCT-15; [3]) was 5.62 µM. The CC50 (HCT-15) was > 100 µM, the GI50 (SK-MEL-2; [2]) was 4.54 µM and the GI50 (SK-MEL-2; [3]) was 4.57 µM. The CC50 (SK-MEL-2) was > 100 µM, the “Log10 TGI50” value (SK-MEL-2) was −4.66 and the “Log10 TGI50” value (CAKI-1) was >−4.00. The GI50 (CAKI-1; [2]) was 6.07 µM, the GI50 (CAKI-1; [3]) was 6.03 µM and the CC50 (CAKI-1) was > 100 µM.

For `C#Cc1ccc(-n2c(/C=C/c3ccc4ccccc4c3)nc3ncccc3c2=O)cc1` [4s, (E)-3-(4-Ethynylphenyl)-2-(2-(naphthalen-2-yl)vinyl)pyrido[2,3-d]pyrimidin-4(3H)-one], the GI50 (UO-31; [2]) was 3.11 µM, the GI50 (UO-31; [3]) was 3.09 µM and the CC50 (UO-31) was > 100 µM. The “Log10 TGI50” value (UO-31) was >−4.00, the “Log10 TGI50” value (NCI-H322M) was >−4.00 and the GI50 (NCI-H322M; [2]) was 7.3 µM. For the same compound, the GI50 (NCI-H322M; [3]) was 7.24 µM, the CC50 (NCI-H322M) was > 100 µM and the “Log10 TGI50” value (U251) was >−4.00. The GI50 (U251; [4]) was 3.69 µM, the GI50 (U251; [5]) was 3.72 µM and the CC50 (U251) was > 100 µM. For the same compound, the GI50 (OVCAR-5; [2]) was 6.88 µM, the GI50 (OVCAR-5; [3]) was 6.92 µM and the CC50 (OVCAR-5) was > 100 µM. For the same compound, the “Log10 TGI50” value (OVCAR-5) was >−4.00, the “Log10 TGI50” value (T-47D) was >−4.00 and the GI50 (T-47D; [2]) was 3.9 µM. The GI50 (T-47D; [3]) was 3.89 µM, the CC50 (T-47D) was > 100 µM and the GI50 (MOLT-4; [6]) was 2 µM. The GI50 (MOLT-4; [7]) was 2 µM, the CC50 (MOLT-4; [8]) was > 100 µM and the “Log10 TGI50” value (MOLT-4) was >−4.00. For the same compound, the “Log10 TGI50” value (HCC-2998) was −5.30, the GI50 (HCC-2998; [2]) was 2.32 µM and the GI50 (HCC-2998; [3]) was 2.29 µM. For the same compound, the CC50 (HCC-2998) was 5.01 µM, the GI50 [1] was 0.22 to 0.43 µM and the “Log10 TGI50” value (HT-29) was >−4.00. For the same compound, the GI50 (HT-29; [2]) was 3.26 µM, the GI50 (HT-29; [3]) was 3.24 µM and the CC50 (HT-29) was > 100 µM. For the same compound, the “Log10 TGI50” value (COLO 205) was −5.44, the GI50 (COLO 205; [2]) was 2.06 µM and the GI50 (COLO 205; [3]) was 2.04 µM. For the same compound, the CC50 (COLO 205) was 3.63 µM, the “Log10 TGI50” value (MALME-3M) was >−4.00 and the GI50 (MALME-3M; [2]) was 4.97 µM. For the same compound, the GI50 (MALME-3M; [3]) was 6.31 µM, the CC50 (MALME-3M) was > 100 µM and the “Log10 TGI50” value (SR) was >−4.00. For the same compound, the GI50 (SR; [6]) was 1.4 µM, the GI50 (SR; [7]) was 1.41 µM and the CC50 (SR; [8]) was > 100 µM. For the same compound, the “Log10 TGI50” value (HCT-15) was >−4.00, the GI50 (HCT-15; [2]) was 2.91 µM and the GI50 (HCT-15; [3]) was 2.88 µM. The CC50 (HCT-15) was > 100 µM, the GI50 (SK-MEL-2; [2]) was 2.41 µM and the GI50 (SK-MEL-2; [3]) was 2.4 µM. For the same compound, the CC50 (SK-MEL-2) was 6.17 µM, the “Log10 TGI50” value (SK-MEL-2) was −5.21 and the “Log10 TGI50” value (CAKI-1) was >−4.31. For the same compound, the GI50 (CAKI-1; [2]) was 2.98 µM, the GI50 (CAKI-1; [3]) was 2.95 µM and the CC50 (CAKI-1) was > 100 µM.
